Experimental data taken from patent EP3009422A1, “Photo-switchable sulfonylureas and their uses” (Ludwig-Maximilians-Universität München, priority 2014, dated 2016).

Experiments:
[1] = system: mouse islets; assay: Calcium imaging (fMCI) of beta cell activity in intact mouse islets; assay type: cell-based; conditions: for EC50: mouse islets, concentration-response, read-out: EC50 for cytosolic Ca^2+ rises; for effect of high doses on the effects of JB253 on cytosolic Ca^2+: JB253-treated mouse islets, 405 nm, n = 4-6 recordings
Description: Male and female CD1 and C57BL6 mice (8-20 weeks) were maintained in a specific pathogen-free facility under a 12h light-dark cycle with ad libitum access to water and food. Animals were euthanized using a schedule-1 method and pancreatic islets isolated by collagenase digestion. All procedures were regulated by the Home Office according to the Animals (Scientific Procedures) Act 1986 of the United Kingdom (PPL 70/7349), and study approval granted by the Animal Welfare and Ethical Review Body (AWERB) of Imperial College. No randomization was used for animal experimentation, since mice were only used as tissue donors.
(§1) Islets were loaded for 30-45 min in fluo2-AM (10 µM) or for 2-5 min with X-Rhod 1 (5 µM) diluted with a mixture of DMSO (0.01%, wt/vol) and pluronic acid (0.001%, wt/vol; all Invitrogen) in a bicarbonate buffer containing in mM: 120 NaCl, 4.8 KCl, 1.25 NaH2PO4, 24 NaHCO3, 2.5 CaCl2, 1.2 MgCl2 and 5 D-glucose. fMCI was performed using a Zeiss Axiovert M200 fitted with a Nipkow spinning-disk head (Yokogawa CSU-10) and a 10x/0.3NA objective adjusted for chromatic aberration (EC Plan-Neofluar, Zeiss). Pulsed excitation (frequency = 0.5 Hz; exposure = 263 ms) was delivered at 491 nm and emitted signals recorded at 500-550 nm with a back-illuminated 16-bit EM-CCD camera (ImageEM 9100-13; Hamamatsu). During recording, islets were maintained at 35-36 °C in the presence of 50 µM JB253 using a custom-manufactured perfusion and heating system (Digital Pixel). Drugs were introduced through the perfusion system at the indicated time points and concentrations. Violet light was delivered by a 405 ± 5 nm laser coupled to the side port of the microscope and configured to fill the back of the objective with light using an Optospot (Cairn Research). Blue light was delivered using 440 ± 5 nm and 491 ± 5 nm diode lasers controlled by a laser merge module (Spectral Applied Research) to allow simultaneous exposure and acquisition. For single islet targeting, a 473 ± 5 nm laser was coupled to a custom-manufactured dichroic array (Cairn Research), allowing user-directed steering of a collimated laser spot across the field of view. Signals were normalized using F/Fmin where F is fluorescence at a given timepoint and Fmin is minimum fluorescence.
(§2) Data distribution was determined using the D'Agostino omnibus test. Non-multifactorial pairwise comparisons were made using either the Student's t-test. Interactions between multiple treatments were assessed using one-way ANOVA followed by pairwise comparisons using Bonferroni's post-hoc test. Effect sizes in islets/cells are usually sufficiently large that multiple animals/independent replication is a more important determinant of power in studies requiring statistical comparison. Non-linear regression was used to calculate the EC50 of normalized and log-transformed concentration-response curves. For [3H]-glibenclamide displacement assays, data points were fitted to the Hill equation before calculation of the halfmax value. In all cases, analysis was performed using Graphpad Prism (Graphpad Software) and IgorPro, and experimental numbers reported as independent biological replicates. No animals or data were excluded from the analysis and results were considered significant at P<0.05.

[2] = target: T1, SUR1 (Rattus norvegicus, UniProt Q09429); assay: [3H]-glibenclamide displacement radioassay in SUR1-expressing HEK293t cells; assay type: binding; conditions: displacement of [3H]-glibenclamide, SUR1-expressing HEK293t cells, n = 3
T1 construct: expressed in transfected cells; host or cells: HEK293t
T1 sequence (Q09429 whole entry): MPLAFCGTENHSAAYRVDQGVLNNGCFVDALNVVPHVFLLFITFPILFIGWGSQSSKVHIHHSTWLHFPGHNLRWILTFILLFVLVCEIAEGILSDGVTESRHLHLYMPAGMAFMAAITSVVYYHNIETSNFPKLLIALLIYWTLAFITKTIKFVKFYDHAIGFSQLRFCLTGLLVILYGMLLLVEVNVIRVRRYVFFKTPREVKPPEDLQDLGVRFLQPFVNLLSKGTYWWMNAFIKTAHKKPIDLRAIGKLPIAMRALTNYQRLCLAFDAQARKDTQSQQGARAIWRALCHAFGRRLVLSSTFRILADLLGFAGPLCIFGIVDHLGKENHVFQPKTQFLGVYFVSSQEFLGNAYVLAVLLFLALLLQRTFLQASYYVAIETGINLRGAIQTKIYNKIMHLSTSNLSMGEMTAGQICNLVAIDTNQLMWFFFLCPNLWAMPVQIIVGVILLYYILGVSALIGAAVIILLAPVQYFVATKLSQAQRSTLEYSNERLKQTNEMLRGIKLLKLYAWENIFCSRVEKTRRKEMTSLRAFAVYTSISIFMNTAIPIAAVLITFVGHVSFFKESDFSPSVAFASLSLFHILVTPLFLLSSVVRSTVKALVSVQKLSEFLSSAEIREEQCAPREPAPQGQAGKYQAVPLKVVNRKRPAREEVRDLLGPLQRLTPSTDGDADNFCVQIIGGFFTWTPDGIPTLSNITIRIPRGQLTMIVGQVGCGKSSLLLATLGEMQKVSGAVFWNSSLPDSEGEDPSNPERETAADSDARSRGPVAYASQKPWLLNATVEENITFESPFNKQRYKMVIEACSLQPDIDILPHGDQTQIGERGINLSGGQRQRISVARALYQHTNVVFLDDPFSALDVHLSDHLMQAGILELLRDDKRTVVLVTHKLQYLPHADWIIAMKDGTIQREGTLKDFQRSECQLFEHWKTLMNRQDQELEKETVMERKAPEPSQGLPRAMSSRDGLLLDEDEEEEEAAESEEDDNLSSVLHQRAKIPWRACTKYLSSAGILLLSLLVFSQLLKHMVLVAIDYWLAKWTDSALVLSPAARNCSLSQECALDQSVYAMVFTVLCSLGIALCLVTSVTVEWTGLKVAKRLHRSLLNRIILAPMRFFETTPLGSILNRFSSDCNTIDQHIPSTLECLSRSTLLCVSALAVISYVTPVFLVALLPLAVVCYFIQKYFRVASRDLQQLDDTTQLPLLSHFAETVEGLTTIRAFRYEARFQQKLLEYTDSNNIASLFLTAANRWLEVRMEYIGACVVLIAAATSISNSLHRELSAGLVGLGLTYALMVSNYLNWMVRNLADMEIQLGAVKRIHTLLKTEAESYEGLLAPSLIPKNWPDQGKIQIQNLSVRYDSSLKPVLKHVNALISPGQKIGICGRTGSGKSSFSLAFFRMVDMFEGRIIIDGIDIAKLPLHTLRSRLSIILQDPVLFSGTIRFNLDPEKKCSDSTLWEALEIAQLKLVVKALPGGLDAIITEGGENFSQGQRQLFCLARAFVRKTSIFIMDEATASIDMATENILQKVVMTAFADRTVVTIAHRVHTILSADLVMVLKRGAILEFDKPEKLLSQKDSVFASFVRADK
Description: SUR1-expressing HEK293t cells were harvested and washed twice in assaying buffer containing in mM: 119 NaCl, 4.7 KCl, […], 1.2 KH2PO4, 1.2 MgSO4, 5 NaHCO3, and 20 HEPES, pH 7.4. In a 96-well plate, ∼200,000 cells/well were incubated for 50 min with [3H]-glibenclamide (PerkinElmer) and different concentrations of glimepiride (Sigma-Aldrich) or JB253. Incubation was terminated by rapid filtration through Whatman GF/C filters by means of a Brandel MWXR-96 TI harvester and filters were washed 3 times with ice-cold assay buffer. Radioactivity was counted 6 h after cell and filter lysis in 200 µL Rotiszint EcoPlus (Roth) using a Packard microbeta scintillation counter (PerkinElmer).
as §2

[3] = system: human islets; assay: Calcium imaging in isolated human islets of Langerhans; assay type: cell-based; conditions: JB253-treated human islets, 440 nm and 491 nm
Description: Human islets were isolated from deceased heart-beating donors (n = 3) at transplantation facilities in Pisa and Edmonton with the relevant national and local ethical permissions, including consent from next of kin where required, and cultured in RPMI supplemented with 5.5 mM D-glucose, 10% foetal calf serum (FCS), 100 U penicillin, 100 µg streptomycin and 0.25/µl fungizone (37 °C, 5% CO2). All studies involving human tissue were approved by the National Research Ethics Committee (NRES) London (Fulham), REC # 07/H0711/114.
as §1, with “For single islet targeting, a 473 ± 5 nm laser was coupled to a custom-manufactured dichroic array (Cairn Research), allowing user-directed steering of a collimated laser spot across the field of view.” left out

[4] = system: isolated murine islets; assay: Insulin secretion from isolated islets (static incubation, radioimmunoassay); assay type: cell-based, mouse; conditions: diazoxide 250 µM, JB253 50 µM, illumination
Description: Insulin secretion was measured from 6 islets per well, incubated at 37 °C for 30 min in 0.5 ml of Krebs-HEPES-bicarbonate (KHB) solution (containing in mM: 130 NaCl, 3.6 KCl, 1.5 CaCl2, 0.5 MgSO4, 0.5 NaH2PO4, 2 NaHCO3, 10 HEPES, and 0.1 % (wt/vol) BSA, pH 7.4) containing the indicated glucose concentration and tolbutamide (100 µM), glimeperide (50 µM), diazoxide (250 µM) and JB253 (50 µM). Illumination (λ = 405 ± 20 nm and 485 ± 6 nm) was performed using a Fluostar Optima microplate reader (BMG Labtech) set to deliver 30 s of light every 2 min to the designated wells. Insulin concentrations were determined in duplicate using specific radioimmunoassay (EMD Millipore).

[5] = system: Epac2A; assay: Epac2-camps FRET imaging in HEK293t cells; assay type: cell-based; conditions: HEK293t cells expressing full length Epac2-camps; JB253 as cis-JB253 (excitation 440 nm)
Description: For EPAC2 imaging, HEK293t were transfected with the full length construct for […] containing the cAMP and sulfonylurea binding domains (obtained from Prof. […] Excitation was delivered at 440 nm and emitted signals captured using […] filters. FRET was calculated as the ratio of Cerulean (CFP):Venus (YFP) fluorescence. Signals were normalized using R/R0 where R is the ratio at a given timepoint and R0 is the minimum ratio.

IC50 [2] [nM] | SMILES | EC50 [1] [nM] | IC50 ([2]; cis-state may relax thermally during washing) [nM] | effect of high doses on the effects of JB253 on cytosolic Ca^2+ [1] | effect on JB253 effects on intracellular Ca^2+ [3] | effect on light-induced insulin secretion of JB253-treated islets [4] | ΔR/R0 (decrease in FRET) [5] [AU]
– | CCN(CC)c1ccc(/N=N\c2ccc(S(=O)(=O)NC(=O)NC3CCCCC3)cc2)cc1 [cis-JB253] | 675 | 14800 | – | – | – | –
– | CC1=NS(=O)(=O)c2cc(Cl)ccc2N1 [diazoxide, reference compound] | – | – | suppress | reversed | partially reversed | –
8.3 | CCC1=C(C)CN(C(=O)NCCc2ccc(S(=O)(=O)NC(=O)N[C@H]3CC[C@H](C)CC3)cc2)C1=O [glimepiride, reference compound] | 399 | – | – | – | – | 0.052
– | CCCCNC(=O)NS(=O)(=O)c1ccc(C)cc1 [tolbutamide, reference compound] | – | – | augment | mimicked | – | –
